# In US20090036437A1, “PHARMACEUTICAL COMPOSITION COMPRISING PHENOXAZINIUM COMPOUND AS AN ACTIVE INGREDIENT” (priority 2005, published 2009):
# Where two headings read alike, the source gives them in different places.
# Tests used:
# [1] = tested on: malaria; details: mice infected with malaria; 4-day successive treatment, peritoneal administration 5 mg/kg/day; cited from earlier work
# [2] = tested on: Plasmodium falciparum W2; details: in vitro; cited from earlier work
# [3] = tested on: Plasmodium Falciparum K1 strain; assay: in vitro growth-inhibiting screening assay, chloroquine-resistant falciparum malaria; assay type: cell-based
# Experimental: Plasmodium Falciparum K1 strain was used as a chloroquine-resistant protozoa of falciparum malaria. RMI-1640 sterilized by filtration was supplemented with human serum of a final concentration of 5% to be used as a culture medium. The malaria protozoa were cultured under O2 concentration of 3%, CO2 concentration of 4%, N2 concentration of 93% at 37° C.
# A test sample was prepared by dissolving the test compounds according to the present invention and a positive control drug (chloroquine) in DMSO to a predetermined concentration. The erythrocytes infected with the cultured malaria protozoa were collected by centrifugation and so diluted with non-infected erythrocytes to have an initial infection ratio of 0.15%. The hematocrit value was then 2.5%. Culture mixture of the above malaria-infection culture medium (200 μL) was placed into each well of a 96-well culture plate, and the test sample comprising the predetermined amount of the test compound, and DMSO without the test compound were added to the wells in duplicate.
# After culture for 48 hours at 37° C., hypoxanthine labeled with radioactive tritium (^3H) of 0.5 μCi was added to each well. After the culture in the same conditions for further 24 hours, the sample was taken on a glass fiber filter and washed with distilled water. Intensity of radiation was measured by means of plate liquid scintillation counter (Wallac Co.), and an infection ratio of the protozoa of malaria was calculated with respect to a group treated with the test sample and the control. A growth-inhibiting ratio was then calculated from the resulting infection ratio in accordance with the following equation to determine 50% growth-inhibiting concentration (EC50).
# Growth-inhibiting ratio (%)=[1−(b−a)/(c−a)]×100 • a: Initial infection ratio; • b: Infection ratio of the test sample group; and • c: Infection ratio of the control group. In vitro Growth-Inhibiting Assay of Rat L6 Cells
# Anti-malaria effect of the samples was assessed by their EC50 values for the chloroquine-resistant protozoa of falciparum malaria and the rat L6 cell. A chemotherapy coefficient, which is used as an index for the selective toxicity for the chloroquine-resistant protozoa of falciparum malaria was calculated by the following equation, and the pharmaceutical effect was determined.
# Chemotherapy coefficient=(EC50 value of the test sample for rat L6 cell)/(EC50 value of the test sample for the chloroquine-resistant protozoa of falciparum malaria)
# [4] = tested on: Plasmodium berghei NK65 strain; assay: in vivo 4-day suppressive test, intraperitoneal administration, mouse infected with malaria; details: 4 days
# Experimental: This test was carried out in accordance with 4-day suppressive test that is a general in vivo test for the activity of an anti-malaria compound. Rodent malaria protozoa (Plasmodium berghei NK65 strain) were used in this test. Infected blood was prepared by infection with intraperitoneal administration into ICR male mouse (5 weeks age; SPF) and passage culture (subculture) thereafter. Blood was drawn from the vein of a tail of the moue infected with malaria, and its infection ratio was determined. After it was confirmed that the infection ratio had been increased up to an appropriated level (10˜20%), the blood infected with malaria was drawn from the heart of the mouse. The infection ratio and number (cells/mL) of erythrocytes were determined. An uninfected mouse (ICR male, 5 weeks age) was then infected with an injection of the infected erythrocytes so diluted with PBS as to comprise the protozoa of […] per dose (0.2 mL) into the vein of its tail.
# A test sample was prepared by dissolving the test compounds according to the present invention into physiologic saline (Otsuka Pharmaceuticals Industries) to a predetermined concentration. In the case where the compound was insoluble in water, it was dissolved into DMSO or Tween 20 to prepare the test sample. A control group (no drug-administration group) was treated only with physiologic saline. […]
# One group consisted of five mice. The intraperitoneal administration of the test sample started after two hours from the infection with malaria and continued for successive 4 days with a 24-hour interval. After 24 hours from the last administration, blood was drawn from the tail of the infected mouse to prepare a thin-layer smear, and the number of the erythrocytes infected with the malaria protozoa under a microscope with respect to the control group and the test sample groups. Parasitemia, i.e., the infection ratio with the malaria protozoa, was obtained by calculating an average value of the medium three mice except the two mice showing a maximum or minimum inhibition level. A cure rate (suppression) was then calculated from the resulting parasitemia in accordance with the following equation.
# Cure rate: suppression (%)=(b−a)/b×100 • a: Infection ratio of the test sample group; and • b: Infection ratio of the control group.
# [5] = tested on: Rat L6 cell (rat skeletal myoblast cell); assay: in vitro growth-inhibiting assay of rat L6 cells; assay type: cell-based
# Experimental: Rat L6 cell (rat skeletal myoblast cell) was cultured in RPMI-1640 culture medium supplemented with 1% of L-glutamine (200 mM) and fetal calf serum (10%) under 5% CO2 concentration at 37° C. A test sample was prepared by dissolving the test compounds according to the present invention and a positive control drug in DMSO to a predetermined concentration. After pre-culture had been finished, the culture medium containing the cells in a logarithmic phase was placed into each well of a 96-well culture plate, and the test sample comprising the predetermined amount of the test compound, and DMSO without the test compound were added to the wells in duplicate.
# After incubation of the culture plate for 72 hours in an incubator, a growth-inhibiting activity was assayed as follows. Alamar Blue aqueous solution (10 μL) was added to each well followed by a further two-hour culture. The culture plate was then attached to a fluorescence micro titer plate reader (Spectramax Gemeni XS; U.S. Molecular Device Co.), and the intensity of fluorescence at 588 nm was detected with an excitation wave length of 536 nm. A residual ratio of L6 cells was calculated with respect to a group treated with the test sample and a control group. A growth-inhibiting ratio for L6 cells was then calculated from the resulting residual ratio in accordance with the following equation to determine 50% growth-inhibiting concentration (EC50).
# Growth-inhibiting ratio (%)=[1−(C−A)/(B−A)]×100 • A: Initial number of cells; • B: Number of the cells in the control after 3 days; and • C: Number of the cells treated with the test sample after 3 days Determination of Pharmaceutical effect for Chloroquine-Resistant Malaria
# [6] = tested on: Leishmania donovani (MHOM/ET/67/L82 strain); assay: in vitro growth-inhibiting screening assay, protozoa of Leishmaniasis; assay type: cell-based; details: Leishmania donovani; amastigotes; 72 h, Alamar Blue; read-out: growth-inhibiting concentration (nM) Leishmania donovani
# Experimental: This test was done using the protozoa of Leishmania donovani (MHOM/ET/67/L82 strain). The protozoa were subcultured using Syrian Golden hamster and an amastigote was obtained therefrom. The amastigotes were cultured in SM medium supplemented with 10% of heat-treated fetal calf serum (pH 5.4) under CO2 concentration of 5%, at 37° C.
# A test sample was prepared by dissolving the test compounds according to the present invention and a positive control drug (Miltefosine) in DMSO to a predetermined concentration. Culture medium containing a predetermined number of the protozoa was added into each well of a 96-well culture plate, and the concentration of the amastigotes was measured by means of CASY cell analysis system (Dermany, Scharfe Co.). Test sample comprising the predetermined amount of the test compound, and DMSO without the test compound were added to the wells in duplicate.
# After incubation of the culture plate for 72 hours in an incubator, a growth-inhibiting activity was assayed as follows. Alamar Blue aqueous solution (10 μL) was added to each well followed by a further two-hour culture. The culture plate was then attached to a fluorescence micro titer plate reader (Spectramax Gemeni XS; U.S. Molecular device Co.), the intensity of fluorescence at 588 nm was detected with excitation wave length of 536 nm to calculate an infection ratio of the protozoa with respect to a group trated with the test sample and a control group. A growth-inhibiting ratio was then calculated from the resulting infection ratio in accordance with the following equation to determine 50% growth-inhibiting concentration (EC50).
# (§1) Growth-inhibiting ratio (%)=[1−(b−a)/(c−a)]×100 • a: Initial infection ratio; • b: Infection ratio of the test sample group; and • c: Infection ratio of the control group.
# A selective toxicity coefficient, which is used as an index for the selective toxicity for the protozoa of Leishmaniasis, was calculated by the following equation, and the pharmaceutical effect was determined.
# A selective toxicity coefficient=(EC50 value of the test sample for rat L6 cell)/(EC50 value of the test sample for the protozoa of Leishmaniasis).
# [7] = tested on: Trypanosoma cruzi (Tulahuen C2C4 strain); assay: in vitro growth-inhibiting screening assay, protozoa of American trypanosomiasis; assay type: cell-based; details: Trypanosoma cruzi, TULAHUEN; in infected rat L6 cells; 96 h, CPRG/Nonidet; read-out: 50% growth-inhibiting concentration (nM) Trypanosoma cruzi
# Experimental: The test was done using a trypomastigote and an amastigote of the protozoa of Trypanosoma cruzi (Tulahuen C2C4 strain) present in the infected rat L6 cells. The L6 cells were cultured in RPMI-1640 medium supplemented with 1% of […] (200 mM) and 10% of fetal calf serum under CO2 concentration of 5%, at 37° C.
# A test sample was prepared by dissolving the test compounds according to the present invention and a positive control drug (benznidazole) in DMSO to a predetermined concentration. Culture medium containing the protozoa of 5×10^3 was added into each well of 96-well culture plate and cultured for 48 hours. After the medium was exchanged, the test sample comprising the predetermined amount of the test compound, and DMSO without the test compound were added into each well in duplicate.
# After incubation of the culture plate for 96 hours in an incubator, a growth-inhibiting activity was assayed as follows. CPRG/Nonidet (50 μL) was added to each well followed by a further 2˜6-hour culture. The culture plate was then attached to an absorption micro titer plate reader, the absorbance at 540 nm was detected to calculate an infection ratio of the protozoa with respect to a group treated with the test sample and a control group. A growth-inhibiting ratio was then calculated from the resulting infection ratio in accordance with the following equation to determine 50% growth-inhibiting concentration (EC50).
# as §1
# A selective toxicity coefficient, which is used as an index for the selective toxicity for the protozoa of American trypanosomiasis, was calculated by the following equation, and the pharmaceutical effect was determined.
# A selective toxicity coefficient=(EC50 value of the test sample for rat L6 cell)/(EC50 value of the test sample for the protozoa of American trypanosomiasis).
# [8] = chloroquine-resistant strain, 72 h culture, 3H-hypoxanthine, read-out: 50% growth-inhibiting concentration (nM) P. falciparum K1
# [9] = Table 3, 72 h, Alamar Blue, read-out: 50% growth-inhibiting concentration (nM) cytotoxicity L6
structure (smiles),measurement,setting,value
CNc1ccc2nc3ccc(=[N+](C)C)cc-3sc2c1.[Cl-] [Azure B],Suppression(%),[1],9.1%
same,EC50,[2],12.7 ± 7.36 nM
"CCN(CC)CCCC(C)Nc1ccnc2cc(Cl)ccc12 (stereo not shown) [Chloroquine, reference compound]",EC50,"[3]; Plasmodium falciparum, K1, read-out: 50% growth-inhibiting concentration (nM) P. falciparum K1",150 nM
CN(C)c1ccc2nc3ccc(=[N+](C)C)cc-3oc2c1.[O-][Cl+3]([O-])([O-])[O-] [Compound A-2],Parasitaemia suppression (%),[4]; 5 mg/kg/day intraperitoneal,45.9%
CC[N+](CC)=c1ccc2nc3ccc(N(C)C)cc3oc-2c1.[O-][Cl+3]([O-])([O-])[O-] [Compound A-5],Parasitaemia suppression (%),[4]; 5 mg/kg/day intraperitoneal,77.0%
"CCN(C)c1ccc2nc3ccc(N(C)C)cc3[o+]c2c1.[O-][Cl+3]([O-])([O-])[O-] [Compound A-9, 3-ethylmethylamino-7-dimethylamino phenoxazinium perchlorate]",Cure rate (%),[4]; 5 mg/kg/day intraperitoneal,71.7%
"CN(C)c1ccc2nc3ccc(N4CCNCC4)cc3[o+]c2c1.Cl.[Cl-] [Compound A-11, 3-dimethylamino-7-(1-piperazino) phenoxazinium chloride mono-hydrochloride salt]",EC50,[3]; [8],27.5 nM
same,EC50,[5],63800 nM
same,Parasitaemia suppression (%),[4]; 5 mg/kg/day intraperitoneal,54.8%
same,Parasitaemia suppression (%),"[4]; Table 5, 5.0 mg/kg/day intraperitoneal",54.8%
same,Parasitaemia suppression (%),"[4]; Table 5, 10 mg/kg/day intraperitoneal",78.5%
same,Parasitaemia suppression (%),"[4]; Table 5, 20 mg/kg/day intraperitoneal",98.1%
same,Parasitaemia suppression (%),"[4]; Table 5, 30 mg/kg/day intraperitoneal",>99.99%
CN1CCN(c2cc(O)c3nc4ccc(=[N+](C)C)cc-4oc3c2)CC1.Cl.[Cl-] [Compound A-14],EC50,[3]; [8],196 nM
same,EC50,[5]; [9],86400 nM
same,Parasitaemia suppression (%),[4]; 5 mg/kg/day intraperitoneal,17.4%
C[N+](C)=c1ccc2nc3c(O)cc(N4CCN(CCO)CC4)cc3oc-2c1 [Compound A-15],EC50,[3]; [8],191 nM
same,EC50,[5]; [9],74600 nM
CCOC(=O)N1CCN(c2cc(O)c3nc4ccc(=[N+](C)C)cc-4oc3c2)CC1.[Cl-] [Compound A-17],Parasitaemia suppression (%),[4]; 5 mg/kg/day intraperitoneal,38.6%
CC(=O)Oc1cc(N2CCN(C)CC2)cc2oc3cc(=[N+](C)C)ccc-3nc12.Cl.[Cl-] [Compound A-19],Parasitaemia suppression (%),[4]; 5 mg/kg/day intraperitoneal,21.4%
C[N+](C)=c1ccc2nc3c(C(=O)O)cc(O)c(O)c3oc-2c1.[Cl-] [Gallocyanine],Suppression(%),[1],15.6%
same,EC50,[2],674 ± 159 nM
CN(C)c1ccc2nc3ccc(=[N+](C)C)cc-3sc2c1.[Cl-] [Methylene Blue],Suppression(%),[1],15.9%
same,EC50,[2],3.99 ± 2.31 nM
"CCCCCCCCCCCCCCCCOP(=O)([O-])OCC[N+](C)(C)C [Miltefosine, reference compound]",EC50,[6],280 nM
Cc1cc2nc3cc(C)c(N)cc3[n+](-c3ccccc3)c2cc1N.[Cl-] [Safranine O],Suppression(%),[1],14.0%
same,EC50,[2],34.8 ± 17.2 nM
"O=C(Cn1ccnc1[N+](=O)[O-])NCc1ccccc1 [benznidazole, reference compound]",EC50,[7],870 nM
